Reference: article PMC9501900 (Molecules, 2022)

Assays:
[1] = Pharmacokinetics of gefitinib in rats, alone and coadministered with CJ (serum, LC-MS/MS); format: in vivo; details: for Change (increase) of AUC0-t of gefitinib / Change (increase) of Cmax of gefitinib: coadministration with CJ (5.0 g/kg of cranberry) vs gefitinib alone, p < 0.05; for Change (increase) of AUC0-t of gefitinib / Change (increase) of Cmax of gefitinib / AUC(0-t) / Cmax / MRT / Tmax: rats; for AUC(0-t) / Cmax / MRT / Tmax: male, Sprague-Dawley, rat, serum, po, 50 mg/kg, mean ± S.E., n = 5
Experimental: Twelve male Sprague-Dawley rats (300–400 g) were supplied by BioLASCO Taiwan Co., Ltd. […] […] Rats were fasted for 12 h before dosing, and food was offered 3 h after drug administration. […] The serum was collected after centrifugation at 10,000× g for 15 min and stored at −20 °C until analysis.
Briefly, 50 μL of serum was partitioned with an equal volume of ethyl acetate containing erlotinib (0.5 μg/mL) as internal standard. The ethyl acetate layer was evaporated under N2 gas to dryness and reconstituted with 50 μL of acetonitrile containing 0.1% formic acid, and then 5 μL was subject to LC-MS/MS analysis.
The mobile phase consisted of 0.1% formic acid (A) and acetonitrile containing 0.1% formic acid (B), and a gradient elution was programmed as follows: A/B: 80/20 (0–1.0 min), 0/100 (1.0–3.5 min) and 80/20 (3.5–6.5 min). The flow rate was 0.2 mL/ min. Nitrogen was used as sheath gas at 50 arbitrary units and auxiliary gas at 10 arbitrary units. […] ESI-MS spectra were recorded in the positive ion mode.
Pharmacokinetic parameters were calculated by the noncompartment model of Phoenix WinNonlin® (version 8.1 Pharsight Corporation, St. Louis, MO, USA). The peak serum concentration (Cmax) was calculated based on experimental measurement. The areas under the serum concentration–time curves (AUC0-t) from time zero to last were calculated by the trapezoidal rule. Each pharmacokinetic parameter was compared among various treatment groups using one-way analysis of variance (ANOVA) with Scheffe’s test. Other studies were statistically compared using unpaired Student’s t-test. Statistical significance level was set at p < 0.05.

[2] = cited from earlier work
[3] = gefitinib 50 mg/kg oral + water
[4] = gefitinib 50 mg/kg oral coadministered with CJ (5.0 g/kg of cranberry)

SMILES	Change (increase) of AUC0-t of gefitinib [1]	Change (increase) of Cmax of gefitinib [1]	Change (increase) of AUC0-t of gefitinib ([1]; listed as gefitinib) [%]	Change (increase) of Cmax of gefitinib ([1]; listed as gefitinib) [%]	AUC(0-t) [1, 3] [ng·h/mL]	Cmax [1, 3] [ng/mL]	MRT [1, 3] [h]	Tmax [1, 3] [h]	AUC(0-t) [1, 4] [ng·h/mL]	Cmax [1, 4] [ng/mL]	MRT [1, 4] [h]	Tmax [1, 4] [h]	Bioavailability [2]	Elimination half-life [2] [h]	Concentrations of O-desmethyl gefitinib in serum ([1]; rat serum samples after oral gefitinib 50 mg/kg, calibration range 0.50–0.03 μg/mL)
COc1cc2ncnc(Nc3ccc(F)c(Cl)c3)c2cc1OCCCN1CCOCC1 [Gefitinib]	(+55%)	(+28%)	55	28	19500	1800 ± 300	8.52	4.4	30300	2300 ± 200	9.05	3.6	57–59%	> 24	–
Oc1cc2ncnc(Nc3ccc(F)c(Cl)c3)c2cc1OCCCN1CCOCC1 [O-desmethyl gefitinib]	–	–	–	–	–	–	–	–	–	–	–	–	–	–	below the LLOQ
